Data from ChEMBL document CHEMBL3217466, “Synthesis and biological activity of hydroxybenzylidenyl pyrrolidine-2,5-dione derivatives as new potent inhibitors of tyrosinase” (Medchemcomm, 2011).

How the values were obtained:
Tyrosinase [1] = target: T1, Tyrosinase (Agaricus bisporus, UniProt O42713); assay: Inhibition of mushroom tyrosinase assessed as decrease in dopachrome production using L-tyrosine as substrate by spectrophotometric analysis
T1 sequence (O42713 whole entry): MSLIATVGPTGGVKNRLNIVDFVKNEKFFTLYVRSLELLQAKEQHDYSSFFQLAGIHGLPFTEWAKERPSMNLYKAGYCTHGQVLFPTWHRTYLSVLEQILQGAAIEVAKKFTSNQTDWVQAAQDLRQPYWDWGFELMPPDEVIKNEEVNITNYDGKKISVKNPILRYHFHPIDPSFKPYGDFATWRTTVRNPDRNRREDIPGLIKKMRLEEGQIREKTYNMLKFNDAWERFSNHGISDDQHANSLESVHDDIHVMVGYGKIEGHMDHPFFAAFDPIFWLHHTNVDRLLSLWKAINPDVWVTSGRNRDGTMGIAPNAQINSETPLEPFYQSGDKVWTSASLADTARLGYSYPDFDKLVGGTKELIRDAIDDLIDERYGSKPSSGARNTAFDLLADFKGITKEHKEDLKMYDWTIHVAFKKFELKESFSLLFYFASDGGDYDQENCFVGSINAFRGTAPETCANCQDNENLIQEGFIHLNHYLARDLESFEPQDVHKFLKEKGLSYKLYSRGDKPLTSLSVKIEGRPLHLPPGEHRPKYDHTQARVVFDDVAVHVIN

Tyrosinase [2] = target: T1, Tyrosinase; assay: Competitive inhibition of mushroom tyrosinase assessed as decrease in rate of dopachrome formation using L-tyrosine as substrate at 1.25 uM by Lineweaver-Burk plot analysis
Tyrosinase [3] = target: T1, Tyrosinase; assay: Competitive inhibition of mushroom tyrosinase assessed as decrease in rate of dopachrome formation using L-tyrosine as substrate at 20 uM by Lineweaver-Burk plot analysis
[4] = Cytotoxicity against mouse B16F10 cells assessed as cell viability at 0.2 uM after 48 hrs by MTT assay; type: cell-based, B16-F10; settings: read-out: Activity
[5] = Cytotoxicity against mouse B16F10 cells assessed as cell viability at 1 uM after 48 hrs by MTT assay; type: cell-based, B16-F10; settings: read-out: Activity
[6] = Cytotoxicity against mouse B16F10 cells assessed as cell viability at 2.5 uM after 48 hrs by MTT assay; type: cell-based, B16-F10; settings: read-out: Activity
[7] = Cytotoxicity against mouse B16F10 cells assessed as cell viability at 5 uM after 48 hrs by MTT assay; type: cell-based, B16-F10; settings: read-out: Activity
[8] = Cytotoxicity against mouse B16F10 cells assessed as cell viability at 10 uM after 48 hrs by MTT assay; type: cell-based, B16-F10; settings: read-out: Activity
B16-F10 [9] = assay: Inhibition of melanogenesis in mouse B16F10 cells assessed as decrease in melanin content after 24 hrs in presence of alpha-MSH; type: functional, cell-based
B16-F10 [10] = assay: Inhibition of melanogenesis in mouse B16F10 cells assessed as melanin content at 0.2 uM after 24 hrs in presence of alpha-MSH (reference value: 241.87%); type: functional; set-up: scale not given: the % may be the effect or the level left
B16-F10 [11] = assay: Inhibition of melanogenesis in mouse B16F10 cells assessed as melanin content at 1 uM after 24 hrs in presence of alpha-MSH (reference value: 241.87%); type: functional; set-up: scale not given: the % may be the effect or the level left
B16-F10 [12] = assay: Inhibition of melanogenesis in mouse B16F10 cells assessed as melanin content at 2.5 uM after 24 hrs in presence of alpha-MSH (reference value: 241.87%); type: functional; set-up: scale not given: the % may be the effect or the level left
B16-F10 [13] = assay: Inhibition of melanogenesis in mouse B16F10 cells assessed as melanin content at 5 uM after 24 hrs in presence of alpha-MSH (reference value: 241.87%); type: functional; set-up: scale not given: the % may be the effect or the level left
B16-F10 [14] = assay: Inhibition of melanogenesis in mouse B16F10 cells assessed as melanin content at 10 uM after 24 hrs in presence of alpha-MSH (reference value: 241.87%); type: functional; set-up: scale not given: the % may be the effect or the level left
[15] = target: T2, Tyrosinase (Mus musculus) (UniProt P11344); assay: Inhibition of tyrosinase in mouse B16F10 cells assessed as rate of L-DOPA oxidation at 0.2 uM after 24 hrs by ELISA in presence of alpha-MSH (reference value: […]%); type: cell-based; set-up: scale not given: the % may be the effect or the level left; settings: B16-F10
T2 sequence (whole entry): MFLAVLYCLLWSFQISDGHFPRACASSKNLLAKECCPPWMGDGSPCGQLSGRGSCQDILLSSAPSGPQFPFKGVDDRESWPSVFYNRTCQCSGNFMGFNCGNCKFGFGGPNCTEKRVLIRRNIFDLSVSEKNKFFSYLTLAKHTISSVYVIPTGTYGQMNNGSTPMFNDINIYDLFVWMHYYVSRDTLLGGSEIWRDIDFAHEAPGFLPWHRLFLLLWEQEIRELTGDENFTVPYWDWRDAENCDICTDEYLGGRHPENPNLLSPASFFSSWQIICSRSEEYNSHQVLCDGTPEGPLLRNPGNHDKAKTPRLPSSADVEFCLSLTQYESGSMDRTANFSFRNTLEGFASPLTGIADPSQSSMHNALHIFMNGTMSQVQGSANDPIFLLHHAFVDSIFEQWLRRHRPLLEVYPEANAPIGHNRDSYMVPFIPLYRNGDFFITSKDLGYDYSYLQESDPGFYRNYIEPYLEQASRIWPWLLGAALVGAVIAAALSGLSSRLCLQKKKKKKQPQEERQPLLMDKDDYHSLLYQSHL

[16] = target: T2, Tyrosinase (Mus musculus); assay: Inhibition of tyrosinase in mouse B16F10 cells assessed as rate of L-DOPA oxidation at 1 uM after 24 hrs by ELISA in presence of alpha-MSH (reference value: […]%); type: cell-based; set-up: scale not given: the % may be the effect or the level left; settings: B16-F10
[17] = target: T2, Tyrosinase (Mus musculus); assay: Inhibition of tyrosinase in mouse B16F10 cells assessed as rate of L-DOPA oxidation at 2.5 uM after 24 hrs by ELISA in presence of alpha-MSH (reference value: […]%); type: cell-based; set-up: scale not given: the % may be the effect or the level left; settings: B16-F10
[18] = target: T2, Tyrosinase (Mus musculus); assay: Inhibition of tyrosinase in mouse B16F10 cells assessed as rate of L-DOPA oxidation at 5 uM after 24 hrs by ELISA in presence of alpha-MSH (reference value: […]%); type: cell-based; set-up: scale not given: the % may be the effect or the level left; settings: B16-F10
[19] = target: T2, Tyrosinase (Mus musculus); assay: Inhibition of tyrosinase in mouse B16F10 cells assessed as rate of L-DOPA oxidation at 10 uM after 24 hrs by ELISA in presence of alpha-MSH (reference value: […]%); type: cell-based; set-up: scale not given: the % may be the effect or the level left; settings: B16-F10

IC50 (Tyrosinase [1]): 2.23 µM | Ki (Tyrosinase [2]): 0.424 µM | Ki (Tyrosinase [3]): 1.82 µM | Activity [15]: 224% | Activity [16]: 177% | Activity [17]: 103% | Activity [18]: 101% | Activity [19]: 97.1%
SMILES: COc1ccc(/C=C2\CC(=O)NC2=O)cc1O
viability at 48 h, 0.2 µM [4]: 99.5% | viability at 48 h, 1 µM [5]: 98.9% | viability at 48 h, 2.5 µM [6]: 98.4% | viability at 48 h, 5 µM [7]: 98.1% | viability at 48 h, 10 µM [8]: 97.8% | inhibition (B16-F10 [9]): Dose-dependent effect | Activity (B16-F10 [10]): 236.67% | Activity (B16-F10 [11]): 231.69% | Activity (B16-F10 [12]): 113.11% | Activity (B16-F10 [13]): 103.74% | Activity (B16-F10 [14]): 99.49%
